Data published in patent publication EP4722219A1 (Gan & Lee Pharmaceuticals Co., Ltd., priority 2023, dated 2024).

Experiments:
Type in all cases: cell-based
[1] = target: T1, ERα (Homo sapiens, UniProt P03372); assay: ERα degradation in MCF-7 cells (Western blot); design: host or cells: MCF-7; conditions: 4 hours
T1 sequence (P03372 1-595): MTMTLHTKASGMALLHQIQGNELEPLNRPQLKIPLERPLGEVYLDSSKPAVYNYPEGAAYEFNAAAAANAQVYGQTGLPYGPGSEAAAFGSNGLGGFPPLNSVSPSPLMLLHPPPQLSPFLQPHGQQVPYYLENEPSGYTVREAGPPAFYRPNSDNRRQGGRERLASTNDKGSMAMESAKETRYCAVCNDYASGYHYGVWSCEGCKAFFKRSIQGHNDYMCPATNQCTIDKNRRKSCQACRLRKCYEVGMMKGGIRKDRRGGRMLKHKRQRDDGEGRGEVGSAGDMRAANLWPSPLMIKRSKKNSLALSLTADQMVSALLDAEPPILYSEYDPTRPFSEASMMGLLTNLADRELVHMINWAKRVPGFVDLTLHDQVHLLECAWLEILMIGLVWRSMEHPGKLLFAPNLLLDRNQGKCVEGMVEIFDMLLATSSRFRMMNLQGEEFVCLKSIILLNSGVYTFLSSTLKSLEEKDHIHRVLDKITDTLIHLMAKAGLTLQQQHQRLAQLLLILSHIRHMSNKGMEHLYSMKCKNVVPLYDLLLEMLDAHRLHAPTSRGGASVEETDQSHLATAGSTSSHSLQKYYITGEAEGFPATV
Procedure: Test Example 4 Effect of PROTAC Compounds Disclosed in the Present Invention on ERα Degradation in MCF-7 Cells
MCF-7 (ATCC) cells were cultured in DMEM medium (11995-065, Gibco) containing 10% FBS (10099141C, Gibco) at 37°C and 5% CO2 until they entered the logarithmic growth phase. MCF-7 cells were plated at a density of 3×10^5 cells/well in a 6-well plate and incubated at 37°C, 5% CO2 for 24 hours. After cell attachment, 1µL of compound in dimethyl sulfoxide (final concentration 0.15-1000nM) was added and incubated for another 4 hours at 37°C, 5% CO2 incubator. After 4 hours, the culture medium was discarded, and each well was washed once with 1 mL of pre-chilled 1× DPBS. The cells were then lysed with 50 µL of RIPA lysis buffer (P0013B, Beyotime) and 1× protease inhibitor cocktail (P1005, Beyotime). After incubation on ice for 20 minutes, the cells were centrifuged at 14,000 g at 4°C for 30 minutes. The supernatant was carefully collected and analyzed for ERα protein levels by immunoblotting.
(§1) Western blotting: The total protein concentration in the collected cell lysate supernatant was determined using the BCA protein concentration assay kit (enhanced) (P0009, Beyotime). Based on the total protein concentration determined by BCA, the protein concentration was adjusted to 1 µg/µL using RIPA lysis buffer and 5× SDS-PAGE protein loading buffer (MB01015, GenScript). The protein was denatured in a 95°C water bath for 5 minutes. After denaturation, the condensed water on the tube wall was collected by centrifugation and used as the loading sample. 20µL of the loading sample (20 µg of total protein) was added to the sample well of a 12% precast gel (M00669, GenScript). Electrophoresis was performed at 100 V for 20 minutes, followed by switching to 150 V for 40 minutes. After electrophoresis, the proteins from the SDS-PAGE gel were transferred to a PVDF membrane at a constant voltage of 100 V for 60 minutes. After transfer, the PVDF membrane corresponding to the ERα protein and internal reference protein was cut and incubated in 1× QµickBlock blocking buffer (P0252, Beyotime) for 30 minutes at room temperature on a shaker. After blocking, the ERα primary antibody (1:1000, 8644S, CST) was added and incubated overnight at 4°C on a shaker. The PVDF membrane was washed three times with 1× TBST buffer for 5 minutes each. Rabbit IgG (H+L) secondary antibody (1:7500, SA5-35571, Invitrogen) was added and incubated for 1 hour at room temperature on a shaker. The membrane was then washed again three times with 1× TBST buffer for 5 minutes each. Finally, the membrane was imaged using a dual-color infrared laser imaging system (Odyssey DLx, LICOR). Protein maps were analyzed for grayscale value using Image Studio Lite software. The grayscale correction value for each sample was calculated using the formula: grayscale correction value = grayscale value of the target protein / grayscale value of the corresponding internal reference. Then the grayscale correction values of the compound group and the control group were compared to calculate the degradation rate of the compound. Table 4 Degradation rate of ERα by PROTAC compounds of the present invention and positive control in MCF-7 cells (%)

[2] = tested on: T-47D cells; assay: Inhibition of cell proliferation in T-47D cells (CCK-8); conditions: 6 days treatment, CCK-8 cell viability
Procedure: Test Example 2 Inhibitory effect of PROTAC compounds provided by the present invention on cell proliferation in T-47D cells
The complete culture medium required for T-47D cells is 1640 (ATCC, Product number: A10491-01) basal culture medium containing 10% fetal bovine serum. T-47D cells were seeded in 96-well plates at a density of 3,000 cells/well, and different concentrations of PROTAC compounds 1-55 provided in the examples of the present invention and positive control sample ARV-471 (source: Inokai) were prepared to treat the cells and incubated at 37 °C, 5% CO2 cell culture incubator for 6 days. According to the manufacturer's instructions, cell viability was detected using a CCK-8 kit (Beyotime, Product number: C0040). The IC50 of each compound after treating for 6 days was calculated using GraphPadPrism software based on the inhibition rate. Table 2 Inhibition IC50 value of T-47D cell proliferation by PROTAC compounds provided by the present invention and positive control sample

[3] = tested on: MCF-7 cells; assay: Inhibition of cell proliferation in MCF-7 cells (CCK-8); conditions: MCF-7 cell proliferation, 6 days treatment
Procedure: Test Example 3 Inhibitory effect of PROTAC compounds provided by the present invention on cell proliferation in MCF-7 cells
The complete culture medium required for MCF-7 cells (source ATCC) is DMEM (gibco, Product number: 11995-065) basal culture medium containing 10% fetal bovine serum. MCF-7 cells were seeded in 96-well plates at a density of 800 cells/well, and different concentrations of PROTAC compounds 1-55 provided in the examples of the present invention and positive control sample ARV-471 (source: Inokai) were prepared to treat the cells and incubated at 37 °C, 5% CO2 cell culture incubator for 6 days. According to the manufacturer's instructions, cell viability was detected using a CCK-8 kit (Beyotime, Product number: C0040). The IC50 of each PROTAC compound after treating for 6 days was calculated using GraphPadPrism software based on the inhibition rate. Table 3 Inhibition IC50 value of MCF-7 cell proliferation by PROTAC compounds of the present invention and positive control sample

[4] = target: T1, ERα; assay: ERα degradation in T-47D cells (Western blot); conditions: 4 hours
Procedure: as §1
Test Example 5 Degradation of ERα by the PROTAC compounds disclosed in the present invention in T-47D cells
T-47D (ATCC) cells were cultured in PRMI-1640 medium (30-2001, ATCC) containing 10% FBS (10099141C, Gibco) at 37°C and 5% CO2 until they entered the logarithmic growth phase. T-47D cells were seeded at a density of 3×10^5 cells/well in a 6-well plate and incubated at 37°C, 5% CO2 for 24 hours. After cell attachment, 1 µL of compound dimethyl sulfoxide solution (final concentration 0.15-1000 nM) was added and incubated for another 4 hours at 37°C, 5% CO2 incubator. After 4 hours, the culture medium was discarded, and each well was washed once with 1 mL of pre-chilled 1× DPBS. The cells were then lysed with 50 µL of RIPA lysis buffer (P0013B, Beyotime) and 1× protease inhibitor cocktail (P1005, Beyotime). After incubation on ice for 20 minutes, the cells were centrifuged at 14,000 g at 4°C for 30 minutes. The supernatant was carefully collected and analyzed for ERα protein levels by immunoblotting. Table 5 Degradation rate of ERα by PROTAC compounds of the present invention and positive control sample in T-47D cells (%)

Row | Compound | Degradation rate of ERα in MCF-7 cells (%) ([1]; 1nM) | Degradation rate of ERα in MCF-7 cells (%) ([1]; 10nM) | IC50 ([2]; Homo sapiens, T47D, 144 h) [nM] | IC50 [3] [nM] | Degradation rate of ERα in T-47D cells (%) ([4]; 1nM) | Degradation rate of ERα in T-47D cells (%) ([4]; 10nM) | IC50 [2] [nM] | IC50 ([3]; Homo sapiens, MCF7, 144 h) [nM]
1 | O=C1CCC(Nc2ccc3c(c2)COC[C@H]2CN(CC4CCC(OC5CCN(c6ccc([C@@H]7c8ccc(O)cc8CC[C@@H]7c7ccccc7)cc6)CC5)CC4)CCN32)C(=O)N1 (single isomer, unassigned) [ER-P-50] | 1 | 9 | 45.6 | 3270 | 4 | 18 | – | –
2 | O=C1CCC(Nc2ccc3c(c2)COC[C@H]2CN(CC4CCC(OC5CCN(c6ccc([C@@H]7c8ccc(O)cc8CC[C@@H]7c7ccccc7)cc6)CC5)CC4)CCN32)C(=O)N1 (single isomer, unassigned) [ER-P-51] | 5 | 1 | – | 1260 | 14 | 12 | 74.3 | –
3 | O=C1CC[C@H](N2Cc3cc(N4CCN(CC5CCN(c6ccc([C@@H]7c8ccc(O)cc8CC[C@@H]7c7ccccc7)cc6)CC5)CC4)ccc3C2=O)C(=O)N1 [ARV-471, reference compound] | 38 | 76 | 0.0017 | – | 61 | 85 | – | 0.0017
4 | O=C1CCC(N2Cc3c(ccc4c3OCC43CCC4(CCN(CC5CCN(c6ccc([C@@H]7c8ccc(O)cc8CC[C@@H]7c7ccccc7)cc6)CC5)CC4)CC3)C2=O)C(=O)N1 (stereo partly drawn) [ER-P-1, 3-(1"-((1-(4-((1R,2S)-6-hydroxy-2-phenyl-1,2,3,4-tetrahydronaphthalen-1-yl)phenyl)piperidin-4-yl)methyl)-6-oxo-6,8-dihydro-2H,7H-dipyrazole[furo[2,3-e]isoindole-3,1'-cyclohexane-4',4'-piperidin]-7-yl)piperidine-2,6-dione] | 19 | 44 | 3.74 | – | 52 | 81 | – | < 0.256
5 | O=C1CCC(N2Cc3c(ccc4c3OCC43CCC4(CCN(C5CCC6(CC5)CN(c5ccc([C@@H]7c8ccc(O)cc8CC[C@@H]7c7ccccc7)cc5)C6)CC4)CC3)C2=O)C(=O)N1 (some centres unmarked) [ER-P-2] | 7 | 48 | 2.02 | – | 26 | 54 | – | 62.6
6 | O=C1CCC(NC(=O)c2cc3c(cc2F)OC2(CC3)CCN(CC3CCC(OC4CCN(c5ccc(C6c7ccc(O)cc7CCC6c6ccccc6)cc5)CC4)CC3)CC2)C(=O)N1 [ER-P-89, N-((S)-2,6-dioxopiperidin-3-yl)-7-fluoro-1'-(((1S,4s)-4-((1-(4-((1R,2S)-6-hydroxy-2-phenyl-1,2,3,4-tetrahydronaphthalen-1-yl)phenyl)piperidin-4-yl)oxy)cyclohexyl)methyl)spiro[chromane-2,4'-piperidine]-6-carboxamide] | – | – | 104 | – | – | – | – | 2740
7 | O=C1CCC(NC(=O)c2cc3c(cc2F)CCC2(CCN(CC4CCC(OC5CCN(c6ccc(C7c8ccc(O)cc8CCC7c7ccccc7)cc6)CC5)CC4)CC2)O3)C(=O)N1 [ER-P-90, N-((S)-2,6-dioxopiperidin-3-yl)-6-fluoro-1'-((((1S,4R)-4-((1-(4-((1R,2S)-6-hydroxy-2-phenyl-1,2,3,4-tetrahydronaphthalen-1-yl)phenyl)piperidin-4-yl)oxy)cyclohexyl)methyl)spiro[chromane-2,4'-piperidine]-7-carboxamide] | – | – | 171 | – | – | – | – | 3650
8 | COc1cc2c(cc1C(=O)NC1CCC(=O)NC1=O)C1(CCN(CC3CCC(OC4CCN(c5ccc(C6c7ccc(O)cc7CCC6c6ccccc6)cc5)CC4)CC3)CC1)CO2 [ER-P-91, N-((S)-2,6-dioxopiperidin-3-yl)-1'-(((1S,4R)-4-((1-(4-((1R,2S)-6-hydroxy-2-phenyl-1,2,3,4-tetrahydronaphthalen-1-yl)phenyl)piperidin-4-yl)oxy)cyclohexyl)methyl)-6-methoxy-2H-spiro[benzofuran-3,4'-piperidine]-5-carboxamide] | – | – | 150 | – | – | – | – | 7940
9 | N-((S)-2,6-dioxopiperidin-3-yl)-6'-fluoro-1-(((1 S,4R)-4-((1-(4-((1R,2S)-6-hydroxy-2-phenyl-1,2,3,4-tetrahydronaphthalen-1-yl)phenyl)piperidin-4-yl)oxy)cyclohexyl)methy l)spiro[azetidine-3,2'-chromane]-7'-carboxamide [ER-P-85] | – | – | – | 956 | – | – | 70.9 | –
